Where two headings read alike, the source gives them in different places.
How the values were obtained:
[1] = target: T1, Recombinant STAT3 protein (STAT3 (G127-I722)) (Homo sapiens, UniProt P40763); test: STAT3 Fluorescence Polarization (FP) Assay; assay type: binding; conditions: probe 5-FAM-GpYLPQTV-NH2 2 nM, 45-minute incubation
T1 construct: Recombinant STAT3 protein (STAT3 (G127-I722))
Method in brief: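 Read-out is fluorescence polarization (mP) after 45 min at room temperature, with IC50 fitted by nonlinear regression against log compound concentration. Mixture: 25 nM STAT3 (G127-I722), 2 nM 5-FAM-GpYLPQTV-NH2 phosphopeptide, 10 mM HEPES pH 7.4 buffer, 1% DMSO.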

[2] = target: T2, Recombinant STAT6 protein (STAT6 (W123-T658)) (Homo sapiens, UniProt P42226); test: STAT6 Fluorescence Polarization (FP) Assay; assay type: binding; conditions: 45-minute incubation
T2 construct: Recombinant STAT6 protein (STAT6 (W123-T658))
T2 sequence (P42226 123-658): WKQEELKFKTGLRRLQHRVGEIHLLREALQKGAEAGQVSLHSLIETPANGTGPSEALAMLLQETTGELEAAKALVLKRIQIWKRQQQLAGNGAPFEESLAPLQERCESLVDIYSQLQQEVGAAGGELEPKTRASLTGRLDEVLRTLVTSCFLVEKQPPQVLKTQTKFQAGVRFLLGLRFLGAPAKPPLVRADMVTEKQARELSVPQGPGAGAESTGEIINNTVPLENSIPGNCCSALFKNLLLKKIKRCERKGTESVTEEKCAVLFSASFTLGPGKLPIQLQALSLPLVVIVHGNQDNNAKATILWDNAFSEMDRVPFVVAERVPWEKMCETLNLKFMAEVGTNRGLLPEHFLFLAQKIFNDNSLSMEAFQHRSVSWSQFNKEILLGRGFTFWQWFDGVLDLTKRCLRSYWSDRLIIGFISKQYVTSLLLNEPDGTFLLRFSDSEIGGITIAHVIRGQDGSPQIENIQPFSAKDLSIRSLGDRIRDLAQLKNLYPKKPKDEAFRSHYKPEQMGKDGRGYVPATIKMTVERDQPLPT
Method in brief: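 Probe displacement format: serially diluted compounds incubated 45 min at room temperature with 2 nM fluorescent phosphopeptide and 250 nM STAT6 (W123-T658) in pH 7.4 HEPES buffer, 1% DMSO final. Polarization signal plotted against log concentration, IC50 fitted by nonlinear regression.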

[3] = STAT3 (G127-I722) 25 nM, read-out: STAT3 (FP assay IC50 class)
[4] = STAT6 (W123-T658) 250 nM, probe 5-FAM-Ap[…]-NH2 2 nM, read-out: STAT6 (FP assay IC50 class)
[5] = STAT3 25 nM, read-out: STAT3 (FP assay IC50)
[6] = STAT6 250 nM, probe 5-FAM-Ap[…]-NH2 2 nM, read-out: STAT6 (FP assay IC50)

T1 sequence (P40763 127-722): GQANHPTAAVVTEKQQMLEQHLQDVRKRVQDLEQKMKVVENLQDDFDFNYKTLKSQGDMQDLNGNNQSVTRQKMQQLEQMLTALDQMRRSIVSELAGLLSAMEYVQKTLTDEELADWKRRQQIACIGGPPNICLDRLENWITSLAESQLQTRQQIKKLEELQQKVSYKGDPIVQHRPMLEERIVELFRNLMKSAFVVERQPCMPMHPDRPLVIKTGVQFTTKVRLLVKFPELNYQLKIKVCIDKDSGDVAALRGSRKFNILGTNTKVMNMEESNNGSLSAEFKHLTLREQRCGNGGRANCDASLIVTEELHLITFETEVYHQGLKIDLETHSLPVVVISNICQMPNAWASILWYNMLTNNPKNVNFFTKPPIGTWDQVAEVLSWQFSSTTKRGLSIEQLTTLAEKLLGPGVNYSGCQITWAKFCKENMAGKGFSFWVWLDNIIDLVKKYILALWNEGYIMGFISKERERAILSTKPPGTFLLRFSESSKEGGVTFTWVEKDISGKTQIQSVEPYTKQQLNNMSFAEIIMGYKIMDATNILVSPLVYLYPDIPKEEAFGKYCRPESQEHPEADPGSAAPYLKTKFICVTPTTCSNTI

SMILES	IC50 [1, 3] [nM]	IC50 [2, 4] [nM]	IC50 [1, 5] [nM]	IC50 [2, 6] [nM]	IC50 ([2]; STAT6 250 nM, probe 5-FAM-ApYKPFQDLI-NH2 2 nM, read-out: STAT6 (FP assay IC50)) [nM]
O=C(N[C@H]1CCC[C@H]2CC[C@@H](C(=O)NCc3cnc4[nH]cnc4c3)N2C1=O)c1cc2cc(C(F)(F)P(=O)(O)O)ccc2s1 [Compound 1118, ((2-(((3S,6S,9aS)-3-(((3H-imidazo[4,5-b]pyridin-6-yl)methyl)carbamoyl)-5-oxooctahydro-1H-pyrrolo[1,2-a]azepin-6-yl)carbamoyl)benzo[b]thiophen-5-yl)difluoromethyl)phosphonic acid]	< 100	300 to 3000			
C[C@]1(O)CC[C@H](NC(=O)c2cc3cc(C(F)(F)P(=O)(O)O)ccc3s2)C(=O)N2[C@H](CC[C@H]2C(=O)N2CC(C(=O)N3CCOCC3)C2)C1 [Compound 13, (difluoro(2-(((3S,6S,9S,10aR)-9-hydroxy-9-methyl-3-(3-(morpholine-4-carbonyl)azetidine-1-carbonyl)-5-oxodecahydropyrrolo [1,2-a]azocin-6-yl)carbamoyl)benzo [b]thiophen-5-yl)methyl) phosphonic acid]			< 100	3000 to 30000	
N#C[C@H]1CN(C(=O)[C@@H]2CC[C@@H]3CCCC[C@H](NC(=O)c4ccc5ccc(C(F)(F)P(=O)(O)O)cc5c4)C(=O)N32)C[C@@H]1c1cc[nH]c(=O)c1 (single isomer, unassigned) [Compound 80, ((7-(((3S,6S,10aS)-3-((3R,4S or 3S,4R)-3-cyano-4-(2-oxo-1,2-dihydropyridin-4-yl)pyrrolidine-1-carbonyl)-5-oxodecahydropyrrolo [1,2-a]azocin-6-yl)carbamoyl)naphthalen-2-yl)difluoromethyl) phosphonic acid]			100 to 1000		≤ 300
NC(=O)Cc1cc(-c2ccccc2)ccc1NC(=O)[C@@H]1CCC2CCC[C@H](NC(=O)c3cc4cc(C(F)(F)P(=O)(O)O)ccc4s3)C(=O)N21 (stereo partly drawn) [Compound 1122, ((2-(((35,6S)-3-((3-(2-amino-2-oxoethyl)-[1,1′-biphenyl]-4-yl)carbamoyl)-5-oxooctahydro-1H-pyrrolo[1,2-a]azepin-6-yl)carbamoyl)benzo[b]thiophen-5-yl)difluoromethyl)phosphonic acid]	100 to 1000	3000 to 30000			
O=C(N[C@H]1CCC[C@H]2CC[C@@H](C(=O)NCc3c[nH]c4ncccc34)N2C1=O)c1cc2cc(C(F)(F)P(=O)(O)O)ccc2s1 [Compound 31, ((2-(((3S,6S,9aS)-3-(((1H-pyrrolo[2,3-b]pyridin-3-yl)methyl)carbamoyl)-5-oxooctahydro-1H-pyrrolo[1,2-a]azepin-6-yl)carbamoyl)benzo [b]thiophen-5-yl)difluoromethyl) phosphonic acid]			100 to 1000	300 to 3000	
O=C(N[C@H]1CCC[C@H]2CC[C@@H](C(=O)N3CC4(C3)OCc3ccncc34)N2C1=O)c1cc2cc(C(F)P(=O)(O)O)ccc2s1 (stereo partly drawn) [Compound 630, (fluoro(2-(((3S,6S,9aS)-5-oxo-3-(1′H-spiro[azetidine-3,3′-furo [3,4-c]pyridine]-1-carbonyl)octahydro-1H-pyrrolo[1,2-a]azepin-6-yl)carbamoyl)benzo [b]thiophen-5-yl)methyl) phosphonic acid]	100 to 1000	3000 to 30000			
O=C(N[C@H]1C=CC[C@H]2CC[C@@H](C(=O)Nc3ccc(-c4ccccc4)cc3)N2C1=O)c1cc2cc(C(F)(F)P(=O)(O)O)ccc2s1 [Compound 97, ((2-(((3S,6S,9aR)-3-([1,1′-biphenyl]-4-ylcarbamoyl)-5-oxo-2,3,5,6,9,9a-hexahydro-1H-pyrrolo[1,2-a]azepin-6-yl)carbamoyl)benzo[b]thiophen-5-yl)difluoromethyl) phosphonic acid]			100 to 1000	300 to 3000	
CC(=O)N1CCOC2(C1)CN(C(=O)[C@@H]1CC[C@@H]3CCC[C@H](NC(=O)c4cc5cc(C(F)P(=O)(O)O)ccc5s4)C(=O)N31)C2 (stereo partly drawn) [Compound 770, ((2-(((3S,6S,9aS)-3-(8-acetyl-5-oxa-2,8-diazaspiro[3.5]nonane-2-carbonyl)-5-oxooctahydro-1H-pyrrolo[1,2-a]azepin-6-yl)carbamoyl)benzo [b]thiophen-5-yl)fluoromethyl) phosphonic acid]	1000 to 10000	3000 to 30000			

More lines, main results first:

IC50 [1, 3] [nM]	IC50 [2, 4] [nM]	IC50 [1, 5] [nM]	IC50 [2, 6] [nM]	SMILES	IC50 ([2]; STAT6 250 nM, probe 5-FAM-ApYKPFQDLI-NH2 2 nM, read-out: STAT6 (FP assay IC50)) [nM]
		1000 to 10000	≤ 300	N#C[C@@H]1CN(C(=O)[C@@H]2CC[C@@H]3CCCCC[C@H](NC(=O)c4cc5cc(C(F)(F)P(=O)(O)O)ccc5s4)C(=O)N32)C[C@H]1c1ccccc1 (mixture of isomers) [Compound 74, ((2-(((3S,6S,11aS)-3-((rel- trans)-3-cyano-4-phenylpyrrolidine-1-carbonyl)-5-oxodecahydro-1H-pyrrolo[1,2-a]azonin-6-yl)carbamoyl)benzo[b]thiophen-5-yl)difluoromethyl) phosphonic acid]	
1000 to 10000	300 to 3000			O=C(N[C@H]1CCCC[C@H]2CC[C@@H](C(=O)N3C[C@@H](c4cccnc4)CC34CC4)N2C1=O)c1cc2cc(CP(=O)(O)O)ccc2s1 [Compound 244, ((2-(((3S,6S,10aS)-5-ox0-3-((R)-6-(pyridin-3-yl)-4-azaspiro[2.4]heptane-4-carbonyl)decahydropyrrolo[1,2-a]azocin-6-yl)carbamoyl)benzo[b]thiophen-5-yl)methyl)phosphonic acid]	
< 100	3000 to 30000			O=C(N[C@H]1CCCC[C@H]2CC[C@@H](C(=O)N3CC(OCC(F)F)(c4ccccn4)C3)N2C1=O)c1cc2cc(C(F)P(=O)(O)O)ccc2s1 (stereo partly drawn) [Compound 621, ((2-(((3S,6S,10aS)-3-(3-(2,2-difluoroethoxy)-3-(pyridin-2-yl)azetidine-1-carbonyl)-5-oxodecahydropyrrolo [1,2-a]azocin-6-yl)carbamoyl)benzo [b]thiophen-5-yl)fluoromethyl) phosphonic acid]	
< 100	300 to 3000			O=C(N[C@H]1CCCC[C@H]2CC[C@@H](C(=O)N3CC(Cc4ccccn4)C3)N2C1=O)c1cc2cc(C(F)(F)P(=O)(O)O)ccc2s1 [Compound 718, (difluoro(2-(((3S,6S,10aS)-5-oxo-3-(3-(pyridin-2-ylmethyl)azetidine-1-carbonyl)decahydropyrrolo[1,2-a]azocin-6-yl)carbamoyl)benzo [b]thiophen-5-yl)methyl) phosphonic acid]	
100 to 1000	3000 to 30000			O=C(N[C@H]1CCCC[C@H]2CC[C@@H](C(=O)N3CC(c4ccc(=O)[nH]c4)C3)N2C1=O)c1cc2cc(C(F)(F)P(=O)(O)O)ccc2s1 [Compound 816, (difluoro(2-(((3S,6S,10aS)-5-oxo-3-(3-(6-oxo-1,6-dihydropyridin-3-yl)azetidine-1-carbonyl)decahydropyrrolo[1,2-a]azocin-6-yl)carbamoyl)benzo [b]thiophen-5-yl)methyl) phosphonic acid]	
< 100	300 to 3000			COCC1CN(c2ccncc2C2CN(C(=O)[C@@H]3CC[C@@H]4CCC[C@H](NC(=O)c5cc6cc([C@@H](F)P(=O)(O)O)ccc6s5)C(=O)N43)C2)C1 [Compound 856, ((S)-fluoro(2-(((3S,6S,9aS)-3-(3-(4-(3-(methoxymethyl)azetidin-1-yl)pyridin-3-yl)azetidine-1-carbonyl)-5-oxooctahydro-1H-pyrrolo[1,2-a]azepin-6-yl)carbamoyl)benzo [b]thiophen-5-yl)methyl) phosphonic acid]	

Source: patent publication US20250215029A1 (Recludix Pharma, Inc., priority 2022, published 2025)
